In ChEMBL document CHEMBL1201862, “PubChem BioAssay data set” (2004):
Activity calls are given as the source filed them.

Experiments:
[1] = target: T1, Hexokinase HKDC1 (Homo sapiens, UniProt Q2TB90); assay: SAR analysis of small molecule inhibitors of hexokinase domain containing I (HKDC1). [Related pubchem assays (depositor defined):AID493160, AID493190]; type: functional
T1 sequence (Q2TB90 whole entry): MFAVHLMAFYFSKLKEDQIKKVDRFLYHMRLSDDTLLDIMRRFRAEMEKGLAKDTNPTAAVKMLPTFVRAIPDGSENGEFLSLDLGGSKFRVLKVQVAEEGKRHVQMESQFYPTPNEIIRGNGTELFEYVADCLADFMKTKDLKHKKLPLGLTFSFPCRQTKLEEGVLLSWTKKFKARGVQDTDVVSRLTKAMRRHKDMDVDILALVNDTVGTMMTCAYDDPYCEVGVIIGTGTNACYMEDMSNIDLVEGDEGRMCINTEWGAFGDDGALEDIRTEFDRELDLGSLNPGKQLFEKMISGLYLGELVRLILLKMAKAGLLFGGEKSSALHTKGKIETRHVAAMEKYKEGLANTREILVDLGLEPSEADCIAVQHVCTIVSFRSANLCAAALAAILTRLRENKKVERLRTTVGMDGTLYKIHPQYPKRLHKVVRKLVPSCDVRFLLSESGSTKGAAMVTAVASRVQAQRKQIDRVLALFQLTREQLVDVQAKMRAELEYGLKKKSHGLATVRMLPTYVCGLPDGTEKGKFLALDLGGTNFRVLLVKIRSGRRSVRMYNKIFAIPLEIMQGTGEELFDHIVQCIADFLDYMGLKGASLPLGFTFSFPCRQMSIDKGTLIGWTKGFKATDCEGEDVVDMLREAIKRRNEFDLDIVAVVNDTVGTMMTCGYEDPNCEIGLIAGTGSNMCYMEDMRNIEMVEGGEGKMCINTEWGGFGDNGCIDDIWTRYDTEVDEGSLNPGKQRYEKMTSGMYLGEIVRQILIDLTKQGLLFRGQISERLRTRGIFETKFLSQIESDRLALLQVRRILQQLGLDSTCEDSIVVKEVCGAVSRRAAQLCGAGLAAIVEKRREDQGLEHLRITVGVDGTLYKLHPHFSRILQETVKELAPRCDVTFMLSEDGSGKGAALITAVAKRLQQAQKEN

[2] = target: T2, Lysine-specific demethylase 4C (Homo sapiens, UniProt Q9H3R0); assay: GASC-1 (JMJD2C) histone demethylase inhibitors, dose response, biochemical, DELFIA europium, cherry-picked samples (AID 488835); type: functional
T2 sequence (Q9H3R0 whole entry): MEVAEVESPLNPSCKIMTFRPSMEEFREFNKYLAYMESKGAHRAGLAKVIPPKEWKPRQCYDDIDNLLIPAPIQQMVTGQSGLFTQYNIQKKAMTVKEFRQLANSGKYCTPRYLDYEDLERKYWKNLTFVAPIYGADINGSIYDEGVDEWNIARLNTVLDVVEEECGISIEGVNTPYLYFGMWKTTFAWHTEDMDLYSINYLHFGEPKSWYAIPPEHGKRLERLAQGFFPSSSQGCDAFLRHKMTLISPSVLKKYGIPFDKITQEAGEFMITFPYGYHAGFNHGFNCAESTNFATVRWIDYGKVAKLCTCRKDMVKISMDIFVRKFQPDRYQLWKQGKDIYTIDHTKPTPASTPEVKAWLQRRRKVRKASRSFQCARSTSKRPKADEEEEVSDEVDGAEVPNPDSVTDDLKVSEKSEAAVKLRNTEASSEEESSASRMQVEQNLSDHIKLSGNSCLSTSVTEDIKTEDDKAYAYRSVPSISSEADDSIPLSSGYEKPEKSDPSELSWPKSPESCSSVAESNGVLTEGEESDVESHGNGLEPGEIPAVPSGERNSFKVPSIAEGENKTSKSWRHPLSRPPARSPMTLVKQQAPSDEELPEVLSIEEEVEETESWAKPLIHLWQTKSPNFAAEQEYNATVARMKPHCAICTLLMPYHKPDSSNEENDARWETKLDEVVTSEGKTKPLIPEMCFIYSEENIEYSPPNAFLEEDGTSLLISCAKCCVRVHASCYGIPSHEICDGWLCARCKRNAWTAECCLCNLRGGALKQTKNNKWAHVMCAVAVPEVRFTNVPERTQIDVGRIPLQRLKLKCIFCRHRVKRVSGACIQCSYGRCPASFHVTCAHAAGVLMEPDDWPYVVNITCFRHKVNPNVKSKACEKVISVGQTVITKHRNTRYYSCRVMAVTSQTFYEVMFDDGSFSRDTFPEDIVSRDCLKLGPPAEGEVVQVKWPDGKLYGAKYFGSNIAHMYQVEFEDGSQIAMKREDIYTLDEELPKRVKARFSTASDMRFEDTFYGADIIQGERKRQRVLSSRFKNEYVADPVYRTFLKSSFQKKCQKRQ

[3] = target: Hexokinase-1 (Homo sapiens, UniProt P19367); assay: SAR analysis of small molecule inhibitors of hexokinase domain containing I (HKDC1) in the hexokinase 1 selectivity assay. [Related pubchem assays (depositor defined):AID493160, AID493190]; type: functional
Chain of Hexokinase-1 (P19367 whole entry, the tested form may be a part): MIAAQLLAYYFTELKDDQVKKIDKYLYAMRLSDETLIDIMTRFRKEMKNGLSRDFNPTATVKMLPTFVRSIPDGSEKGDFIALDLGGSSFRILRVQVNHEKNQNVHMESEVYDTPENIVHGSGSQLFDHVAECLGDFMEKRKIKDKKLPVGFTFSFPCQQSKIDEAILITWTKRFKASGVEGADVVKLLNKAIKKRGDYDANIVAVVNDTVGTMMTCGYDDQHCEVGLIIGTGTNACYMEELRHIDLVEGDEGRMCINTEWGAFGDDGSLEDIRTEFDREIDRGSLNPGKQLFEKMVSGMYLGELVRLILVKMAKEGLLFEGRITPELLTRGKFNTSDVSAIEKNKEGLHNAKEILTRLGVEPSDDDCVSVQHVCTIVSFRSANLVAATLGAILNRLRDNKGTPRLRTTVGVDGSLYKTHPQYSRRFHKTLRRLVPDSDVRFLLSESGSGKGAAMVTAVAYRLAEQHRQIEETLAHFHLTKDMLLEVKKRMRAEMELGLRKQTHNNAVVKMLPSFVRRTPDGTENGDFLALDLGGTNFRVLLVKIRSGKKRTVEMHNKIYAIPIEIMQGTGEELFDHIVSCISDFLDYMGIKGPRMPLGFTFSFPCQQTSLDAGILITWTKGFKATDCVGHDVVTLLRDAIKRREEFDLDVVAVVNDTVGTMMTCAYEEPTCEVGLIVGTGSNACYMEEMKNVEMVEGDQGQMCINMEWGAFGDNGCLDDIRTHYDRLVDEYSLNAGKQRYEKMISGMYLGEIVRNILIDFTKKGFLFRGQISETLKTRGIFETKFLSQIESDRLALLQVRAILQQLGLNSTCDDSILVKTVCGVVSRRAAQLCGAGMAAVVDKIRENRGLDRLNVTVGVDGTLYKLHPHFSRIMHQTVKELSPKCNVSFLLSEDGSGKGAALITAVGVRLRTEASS

[4] = target: T1, Hexokinase HKDC1; assay: HKDC1 hexokinase inhibitors, dose response, biochemical, W721R variant (AID 504729); type: functional
[5] = target: Induced myeloid leukemia cell differentiation protein Mcl-1 (Homo sapiens, UniProt Q07820); type: functional
Chain of Induced myeloid leukemia cell differentiation protein Mcl-1 (Q07820 whole entry): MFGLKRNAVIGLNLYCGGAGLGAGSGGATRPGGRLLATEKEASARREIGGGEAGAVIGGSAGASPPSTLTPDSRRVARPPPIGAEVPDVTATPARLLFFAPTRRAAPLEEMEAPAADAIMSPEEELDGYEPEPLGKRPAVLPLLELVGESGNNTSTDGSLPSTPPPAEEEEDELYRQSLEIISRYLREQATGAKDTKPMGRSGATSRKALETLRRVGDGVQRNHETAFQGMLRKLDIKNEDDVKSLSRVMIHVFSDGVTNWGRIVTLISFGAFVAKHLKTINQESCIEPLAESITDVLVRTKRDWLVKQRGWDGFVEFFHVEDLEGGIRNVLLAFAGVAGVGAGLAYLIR

[6] = target: Eukaryotic translation initiation factor 4E (Mus musculus, UniProt P63073); assay: eIF4E–eIF4G protein interaction inhibitors, dose response, biochemical, TR-FRET (AID 855); type: functional;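 also: potency for disrupting eIF4E binding to eIF4GI seen as loss of FRET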
Chain of Eukaryotic translation initiation factor 4E (P63073 whole entry): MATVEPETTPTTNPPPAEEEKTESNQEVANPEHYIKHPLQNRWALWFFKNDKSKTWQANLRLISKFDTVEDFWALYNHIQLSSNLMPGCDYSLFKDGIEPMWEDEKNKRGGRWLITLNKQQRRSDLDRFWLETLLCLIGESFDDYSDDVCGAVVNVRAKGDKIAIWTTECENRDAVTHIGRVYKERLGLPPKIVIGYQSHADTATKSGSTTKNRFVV

[7] = test system: INS1; assay: beta cell apoptosis inhibitors, cytokine rescue, dose response, luminescence, retest (AID 449756); type: functional, cell-based; conditions: Rattus norvegicus;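 also: cell death triggered by IL-1 beta plus TNF-alpha plus IFN-gamma mixture; protective hits raise ATP signal compared with cytokine alone wells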
[8] = Luminescence Cell-Based Dose Response HTS to Identify Activators of Luciferase Translation or Activity in H4 […] Cells. [Related pubchem assays: 1829 (Project Summary), 1814 (Primary HTS)]; type: functional
[9] = test system: H4; assay: Luminescence Cell-Based Dose Response HTS to Identify Activators of 5'UTR Stem-Loop Driven Prion Protein mRNA Translation in H4 Neuroglioblastoma Cells. [Related pubchem assays: 1829 (Project Summary), 1814 (Primary HTS)]; type: functional; conditions: Homo sapiens
[10] = test system: HeLa; assay: HeLa cell cytotoxicity, dose response, cytotoxicity control for MITF activator project, CellTiter-Glo luminescence, cherry-pick samples (AID 540259); type: functional, cell-based; conditions: Homo sapiens
[11] = Luminescence Cell-Based Dose Confirmation HTS to Identify Activators of 5'UTR Stem-Loop Driven Alpha-Synuclein mRNA Translation in H4 Neuroglioblastoma Cells. [Related pubchem assays: 1829 (Project Summary), 1814 (Primary HTS)]; type: functional
[12] = target: Dual specificity protein kinase CLK1 (Homo sapiens, UniProt P49759); assay: CLK1 kinase inhibitors, off-target check, dose response, selectivity assay for Dyrk1A inhibitor project, biochemical, cherry-picked samples (AID 588811)
Chain of Dual specificity protein kinase CLK1 (P49759 whole entry): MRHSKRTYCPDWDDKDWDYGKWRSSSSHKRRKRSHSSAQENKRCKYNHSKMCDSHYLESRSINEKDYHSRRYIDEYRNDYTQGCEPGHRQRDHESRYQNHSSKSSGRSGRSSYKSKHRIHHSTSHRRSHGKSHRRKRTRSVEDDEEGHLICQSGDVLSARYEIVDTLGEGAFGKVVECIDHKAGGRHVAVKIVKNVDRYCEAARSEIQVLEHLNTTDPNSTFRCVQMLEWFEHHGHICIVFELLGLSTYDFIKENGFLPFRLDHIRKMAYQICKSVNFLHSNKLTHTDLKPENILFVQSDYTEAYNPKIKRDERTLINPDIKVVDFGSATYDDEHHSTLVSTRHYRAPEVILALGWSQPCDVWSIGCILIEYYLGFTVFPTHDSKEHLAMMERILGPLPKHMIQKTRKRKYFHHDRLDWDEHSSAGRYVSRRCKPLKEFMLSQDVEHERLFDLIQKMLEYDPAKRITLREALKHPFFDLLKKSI

[13] = target: Beta-2 adrenergic receptor (Homo sapiens, UniProt P07550); assay: beta2AR agonists driving receptor internalization, dose response, cell-based, FAP fluorogen, flow cytometry, cherry pick 1 (AID 588763); type: functional
Chain of Beta-2 adrenergic receptor (P07550 whole entry): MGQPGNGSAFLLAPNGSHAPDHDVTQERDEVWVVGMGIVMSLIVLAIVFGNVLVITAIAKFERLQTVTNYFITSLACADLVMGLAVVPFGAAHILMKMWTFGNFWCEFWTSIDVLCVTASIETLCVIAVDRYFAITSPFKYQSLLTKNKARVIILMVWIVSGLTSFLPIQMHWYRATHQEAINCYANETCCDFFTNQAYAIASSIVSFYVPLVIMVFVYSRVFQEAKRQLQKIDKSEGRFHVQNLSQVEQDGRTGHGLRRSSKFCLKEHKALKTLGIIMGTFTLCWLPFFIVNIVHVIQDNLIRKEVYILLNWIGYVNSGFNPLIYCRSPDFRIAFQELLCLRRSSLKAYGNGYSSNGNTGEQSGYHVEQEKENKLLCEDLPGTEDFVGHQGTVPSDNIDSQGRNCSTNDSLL

[14] = target: Dual specificity tyrosine-phosphorylation-regulated kinase 1A (Rattus norvegicus, UniProt Q63470); type: biochemical, Homo sapiens
[15] = target: Beta-galactosidase (Escherichia coli, UniProt Q8VNN2); assay: PubChem AID 485352; type: functional
Chain of Beta-galactosidase (Q8VNN2 whole entry): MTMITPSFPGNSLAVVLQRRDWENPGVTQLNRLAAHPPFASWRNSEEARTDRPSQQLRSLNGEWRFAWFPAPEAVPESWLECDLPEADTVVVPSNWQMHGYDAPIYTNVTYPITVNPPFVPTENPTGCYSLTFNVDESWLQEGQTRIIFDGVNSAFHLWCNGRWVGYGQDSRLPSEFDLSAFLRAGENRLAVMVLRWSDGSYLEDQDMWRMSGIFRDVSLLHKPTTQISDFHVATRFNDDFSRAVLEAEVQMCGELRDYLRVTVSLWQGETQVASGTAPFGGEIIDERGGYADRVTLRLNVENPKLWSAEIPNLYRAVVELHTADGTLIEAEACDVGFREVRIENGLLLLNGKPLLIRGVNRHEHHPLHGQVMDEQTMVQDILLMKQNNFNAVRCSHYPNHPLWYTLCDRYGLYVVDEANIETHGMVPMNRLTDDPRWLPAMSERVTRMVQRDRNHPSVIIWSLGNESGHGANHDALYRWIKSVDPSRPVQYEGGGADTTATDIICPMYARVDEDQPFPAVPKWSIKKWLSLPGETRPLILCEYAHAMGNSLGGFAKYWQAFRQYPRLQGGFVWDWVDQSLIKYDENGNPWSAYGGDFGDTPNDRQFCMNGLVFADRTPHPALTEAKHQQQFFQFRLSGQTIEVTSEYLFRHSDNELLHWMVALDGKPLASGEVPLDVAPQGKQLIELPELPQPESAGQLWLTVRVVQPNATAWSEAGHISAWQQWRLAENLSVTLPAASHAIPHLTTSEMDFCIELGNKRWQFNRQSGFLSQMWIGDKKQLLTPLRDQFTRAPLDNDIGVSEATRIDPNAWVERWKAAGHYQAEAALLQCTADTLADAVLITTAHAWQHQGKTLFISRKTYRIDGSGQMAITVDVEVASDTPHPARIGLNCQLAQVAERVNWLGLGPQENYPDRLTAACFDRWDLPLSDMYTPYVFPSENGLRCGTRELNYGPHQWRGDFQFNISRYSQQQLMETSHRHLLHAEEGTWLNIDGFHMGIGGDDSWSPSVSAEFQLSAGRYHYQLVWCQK

[16] = target: Type-1 angiotensin II receptor (Homo sapiens, UniProt P30556); assay: AT1 receptor antagonists, dose response, selectivity assay for APJ receptor antagonist project, cell-based, uHTS hits (AID 463214); type: functional;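 also: antagonist potency against angiotensin II stimulated AT1 response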
Chain of Type-1 angiotensin II receptor (P30556 whole entry): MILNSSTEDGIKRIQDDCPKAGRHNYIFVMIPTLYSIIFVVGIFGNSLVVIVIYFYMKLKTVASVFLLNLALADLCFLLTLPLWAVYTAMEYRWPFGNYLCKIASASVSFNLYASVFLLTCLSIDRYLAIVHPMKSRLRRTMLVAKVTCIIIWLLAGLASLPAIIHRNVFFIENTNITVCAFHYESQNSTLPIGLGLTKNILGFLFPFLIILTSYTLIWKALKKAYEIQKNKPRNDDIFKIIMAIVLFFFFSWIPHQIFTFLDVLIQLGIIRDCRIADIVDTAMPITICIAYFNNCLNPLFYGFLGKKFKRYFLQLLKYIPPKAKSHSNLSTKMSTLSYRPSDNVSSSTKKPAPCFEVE

SMILES: Cc1ccc(C)c(S(=O)(=O)Nc2cc(SCC(=O)O)c(O)c3ccccc23)c1
- IC50 [1]: 10.2 µM (active)
- AC50 [2]: 4.94 µM (active)
- IC50 [3]: > 80 µM (inactive)
- IC50 [4]: 2.96 µM (active)
- IC50 [5]: 13.8 µM (active)
- IC50 [6]: > 64 µM (inactive)
- AC50 [7]: 4.28 µM (active)

SMILES: COC(=O)c1ccc(N2CCN(c3ccccc3)CC2)nc1
- EC50 [8]: > 120 µM (not active)
- EC50 [9]: 0.114 µM (active)
- AC50 [10]: 53.8 µM (active)
- EC50 [11]: > 120 µM (not active)

SMILES: Cc1nc(CNc2ncnc3ccc(-c4ccc5c(c4)OCO5)cc23)cs1
- AC50 [12]: 0.0354 µM (active)

SMILES: Cc1ccc(OCc2nnc(SCc3nc4ccccc4[nH]3)n2Cc2ccco2)cc1
- EC50 [13]: 1.08 µM (active)

SMILES: O=C(Nc1ccc2c[nH]nc2c1)c1ccccc1F
- AC50 [14]: 20.8 µM (active)
- EC50 [9]: > 120 µM (not active)

SMILES: O=C(CCC(=O)OCC(=O)c1cccc([N+](=O)[O-])c1)NC1CCCCC1
- EC50 [15]: > 40 µM (inactive)
- IC50 [16]: 25.2 µM (not active)
